# Calls of active or inactive are those of the source.
# Legend:
# [1] = molecular target: Voltage-gated potassium channel, KQT; KCNQ2(Kv7.2)/KCNQ3(Kv7.3) (Homo sapiens, UniProt O43525+O43526); assay: Agonist activity at human KCNQ2/3 transfected in human HEK293 cells incubated for 30 mins by fluorimetric assay; assay type: cell-based
# [2] = test system: Rattus norvegicus; assay: Antinociceptive activity against formalin-induced pain in male Sprague-Dawley rat assessed as reduction in nociceptive response at 40 mg/kg, IG pretreated for 5 mins followed by formalin challenge and measured for first 9 mins (phase I); assay type: functional, organism-based; conditions: time 14.0 min
# [3] = test system: Rattus norvegicus; assay: Antinociceptive activity against formalin-induced pain in male Sprague-Dawley rat assessed as reduction in nociceptive response at 40 mg/kg, IG pretreated for 5 mins followed by formalin challenge and measured for 10 to 60 mins (phase II); assay type: functional, organism-based; conditions: time 15-65 min
# [4] = test system: Rattus norvegicus; assay: Antiallodynic activity in spinal nerve ligation-induced neuropathic pain male Sprague-Dawley rat model assessed as mechanical withdrawal threshold at 40 mg/kg, IG pretreated with compound for 1 hr and measured on day 15 after surgery; assay type: functional, organism-based; conditions: time 15.0 day
# [5] = test system: Mus musculus; assay: Induction of motor coordination impairment in mouse at 20 mg/kg, IG measured upto 120 mins by rotarod method; assay type: functional, organism-based
# [6] = molecular target: Voltage-gated potassium channel, KQT; KCNQ2(Kv7.2)/KCNQ3(Kv7.3) (Homo sapiens) (UniProt O43526+O43525); assay: Agonist activity at human KCNQ2/3 transfected in human HEK293 cells incubated for 30 mins by fluorimetric assay relative to flupirtine; assay type: cell-based; conditions: filed as agonist
# [7] = Hepatotoxicity in rat assessed as change in serum AST level at 10 to 40 mg/kg, IG administered for 28 days and measured after 14 days; assay type: toxicity, organism-based; conditions: in vivo, po, 672 h, dose 10-40 mg/kg, time 28 day
# [8] = Hepatotoxicity in rat assessed as change in serum ALP level at 10 to 40 mg/kg, IG administered for 28 days and measured after 14 days; assay type: toxicity, organism-based; conditions: in vivo, po, 672 h, dose 10-40 mg/kg, time 28 day
# [9] = Hepatotoxicity in rat assessed as change in serum total bilirubin (TBIL) level at 10 to 40 mg/kg, IG administered for 28 days and measured after 14 days; assay type: toxicity, organism-based; conditions: in vivo, po, 672 h, dose 10-40 mg/kg, time 28 day
# [10] = Hepatotoxicity in rat assessed as increase in serum ALT level at 20 to 40 mg/kg, IG administered for 28 days and measured after 14 days relative to control; assay type: toxicity, organism-based; conditions: in vivo, po, 672 h, dose 20-40 mg/kg, time 28 day
# [11] = molecular target: GABA-A receptor; anion channel (Homo sapiens) (UniProt P14867+P47870+P18507+P28472+P48169+Q99928+Q9UN88+P34903+O00591+O14764+Q8N1C3+P18505+P78334+P47869+P31644+Q16445); assay: Inhibition of GABAA receptor (unknown origin) relative to control; assay type: protein-complex assay; conditions: concentration not given here
# [12] = molecular target: Glutamate [NMDA] receptor (Homo sapiens) (UniProt Q05586+Q12879+Q13224+O15399+O60391+Q14957+Q8TCU5); assay: Inhibition of NMDA receptor (unknown origin) relative to control; assay type: protein-complex assay; conditions: concentration not given here
# [13] = molecular target: Voltage-gated inwardly rectifying potassium channel KCNH2 (Homo sapiens, UniProt Q12809); assay: Inhibition of hERG expressed in HEK293 cells by patch clamp method; assay type: toxicity, cell-based
# Sequence of Voltage-gated inwardly rectifying potassium channel KCNH2 (Q12809 whole entry): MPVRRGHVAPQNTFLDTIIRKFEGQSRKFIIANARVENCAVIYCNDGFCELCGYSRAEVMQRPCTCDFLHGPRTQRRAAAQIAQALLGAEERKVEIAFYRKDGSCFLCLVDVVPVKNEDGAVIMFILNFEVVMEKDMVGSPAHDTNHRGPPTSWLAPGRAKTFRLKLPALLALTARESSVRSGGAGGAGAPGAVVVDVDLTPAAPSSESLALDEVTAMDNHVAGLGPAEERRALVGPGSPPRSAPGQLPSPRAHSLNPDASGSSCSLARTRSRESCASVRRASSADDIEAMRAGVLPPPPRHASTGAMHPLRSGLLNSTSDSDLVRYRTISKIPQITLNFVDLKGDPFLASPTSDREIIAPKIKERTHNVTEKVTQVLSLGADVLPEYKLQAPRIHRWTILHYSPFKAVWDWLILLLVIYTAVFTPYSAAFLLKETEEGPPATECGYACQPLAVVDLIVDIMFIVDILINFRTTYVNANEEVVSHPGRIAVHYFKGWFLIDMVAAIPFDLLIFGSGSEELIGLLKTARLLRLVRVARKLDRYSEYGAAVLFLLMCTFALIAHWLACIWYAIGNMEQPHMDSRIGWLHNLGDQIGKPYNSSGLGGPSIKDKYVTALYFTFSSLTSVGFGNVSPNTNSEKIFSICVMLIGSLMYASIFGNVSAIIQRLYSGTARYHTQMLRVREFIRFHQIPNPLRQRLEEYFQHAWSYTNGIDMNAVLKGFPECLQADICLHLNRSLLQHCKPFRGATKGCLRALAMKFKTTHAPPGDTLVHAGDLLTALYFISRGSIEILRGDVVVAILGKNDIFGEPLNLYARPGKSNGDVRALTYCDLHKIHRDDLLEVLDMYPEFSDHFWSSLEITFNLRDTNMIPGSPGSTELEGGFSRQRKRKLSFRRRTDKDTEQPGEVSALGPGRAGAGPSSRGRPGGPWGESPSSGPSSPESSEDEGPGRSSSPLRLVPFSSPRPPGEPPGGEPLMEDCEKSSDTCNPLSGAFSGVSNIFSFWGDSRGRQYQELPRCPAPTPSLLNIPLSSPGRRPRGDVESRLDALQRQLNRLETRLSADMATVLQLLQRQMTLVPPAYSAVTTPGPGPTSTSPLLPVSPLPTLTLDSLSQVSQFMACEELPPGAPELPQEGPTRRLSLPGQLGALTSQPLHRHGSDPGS
# [14] = species: Homo sapiens; assay: Inhibition of serotonin receptor (unknown origin) relative to control; conditions: concentration not given here
# [15] = molecular target: Mu-type opioid receptor (Homo sapiens) (UniProt P35372); assay: Inhibition of mu-opioid receptor (unknown origin) relative to control; conditions: concentration not given here
# Sequence of Mu-type opioid receptor (Homo sapiens) (P35372 whole entry): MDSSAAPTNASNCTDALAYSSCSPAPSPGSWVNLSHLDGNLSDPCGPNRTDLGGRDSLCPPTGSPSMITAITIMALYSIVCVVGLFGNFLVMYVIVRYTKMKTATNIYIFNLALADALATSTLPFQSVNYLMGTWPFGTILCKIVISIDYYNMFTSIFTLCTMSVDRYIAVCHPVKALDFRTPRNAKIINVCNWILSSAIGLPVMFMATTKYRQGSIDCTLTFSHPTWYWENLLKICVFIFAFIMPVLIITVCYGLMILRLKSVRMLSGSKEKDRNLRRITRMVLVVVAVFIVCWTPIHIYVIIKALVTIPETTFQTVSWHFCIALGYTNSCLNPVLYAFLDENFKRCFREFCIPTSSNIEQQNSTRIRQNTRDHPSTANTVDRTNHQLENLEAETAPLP
# [16] = molecular target: Histamine H3 receptor (Homo sapiens) (UniProt Q9Y5N1); assay: Inhibition of H3 receptor (unknown origin) relative to control; conditions: concentration not given here
# Sequence of Histamine H3 receptor (Homo sapiens) (Q9Y5N1 whole entry): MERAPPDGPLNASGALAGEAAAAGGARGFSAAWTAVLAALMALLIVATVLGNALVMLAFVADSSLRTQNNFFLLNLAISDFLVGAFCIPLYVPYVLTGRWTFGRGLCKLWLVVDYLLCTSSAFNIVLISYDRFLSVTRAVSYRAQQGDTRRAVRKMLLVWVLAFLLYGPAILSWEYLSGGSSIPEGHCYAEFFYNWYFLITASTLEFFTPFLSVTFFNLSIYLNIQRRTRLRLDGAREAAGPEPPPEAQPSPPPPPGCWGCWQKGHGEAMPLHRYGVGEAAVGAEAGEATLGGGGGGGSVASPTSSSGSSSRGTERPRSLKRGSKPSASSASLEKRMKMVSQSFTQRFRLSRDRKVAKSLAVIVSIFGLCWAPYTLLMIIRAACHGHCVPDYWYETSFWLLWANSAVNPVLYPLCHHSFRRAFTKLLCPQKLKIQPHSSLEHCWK
# [17] = species: Homo sapiens; assay: Inhibition of voltage-gated sodium channel Nav 1.7 (unknown origin) relative to control; conditions: concentration not given here
# [18] = molecular target: Transient receptor potential cation channel subfamily V member 1 (Homo sapiens) (UniProt Q8NER1); assay: Inhibition of TRPV-1 (unknown origin) relative to control; conditions: concentration not given here
# Sequence of Transient receptor potential cation channel subfamily V member 1 (Homo sapiens) (Q8NER1 whole entry): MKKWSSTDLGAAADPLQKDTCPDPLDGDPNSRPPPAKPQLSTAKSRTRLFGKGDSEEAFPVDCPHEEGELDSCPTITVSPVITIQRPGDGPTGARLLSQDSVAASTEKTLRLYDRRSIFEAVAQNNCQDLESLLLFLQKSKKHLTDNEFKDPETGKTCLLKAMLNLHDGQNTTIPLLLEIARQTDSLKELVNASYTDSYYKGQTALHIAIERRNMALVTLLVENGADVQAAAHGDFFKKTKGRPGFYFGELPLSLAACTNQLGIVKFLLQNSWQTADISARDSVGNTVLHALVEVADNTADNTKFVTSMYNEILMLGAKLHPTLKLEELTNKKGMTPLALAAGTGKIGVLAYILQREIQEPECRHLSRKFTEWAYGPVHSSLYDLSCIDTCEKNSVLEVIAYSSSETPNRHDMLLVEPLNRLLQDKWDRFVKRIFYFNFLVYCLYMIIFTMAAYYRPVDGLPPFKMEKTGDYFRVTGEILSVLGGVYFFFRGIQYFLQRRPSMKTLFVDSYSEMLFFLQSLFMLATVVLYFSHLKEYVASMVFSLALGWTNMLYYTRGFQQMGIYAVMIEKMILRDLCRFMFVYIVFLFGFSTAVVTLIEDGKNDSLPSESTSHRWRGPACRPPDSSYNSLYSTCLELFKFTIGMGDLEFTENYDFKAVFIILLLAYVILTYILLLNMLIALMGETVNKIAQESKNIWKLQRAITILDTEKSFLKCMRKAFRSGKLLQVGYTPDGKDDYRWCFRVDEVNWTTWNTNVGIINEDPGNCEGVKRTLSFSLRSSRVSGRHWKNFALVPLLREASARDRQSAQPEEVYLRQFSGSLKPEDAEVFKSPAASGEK
# [19] = Acute toxicity in mouse assessed as lethal dose at IG administration measured after 7 days; conditions: in vivo, po, time 7 day
# [20] = Acute toxicity in mouse assessed as lethal dose at iv administration measured after 7 days; assay type: organism-based; conditions: in vivo, time 7 day
# [21] = Acute toxicity in mouse assessed as lethal dose at ip administration measured after 7 days; assay type: organism-based; conditions: in vivo, time 7 day
# [22] = test system: Rattus norvegicus; assay: Antinociceptive activity against formalin-induced pain in male Sprague-Dawley rat assessed as reduction in nociceptive response at 20 mg/kg, IG pretreated for 5 mins followed by formalin challenge and measured for first 9 mins (phase I); assay type: functional, organism-based; conditions: time 14.0 min
# [23] = test system: Rattus norvegicus; assay: Antinociceptive activity against formalin-induced pain in male Sprague-Dawley rat assessed as reduction in nociceptive response at 20 mg/kg, IG pretreated for 5 mins followed by formalin challenge and measured for 10 to 60 mins (phase II); assay type: functional, organism-based
# [24] = test system: Rattus norvegicus; assay: Antinociceptive activity against formalin-induced pain in male Sprague-Dawley rat assessed as reduction in nociceptive response at IG administration pretreated for 5 mins followed by formalin challenge and measured for 9 mins (phase I); assay type: functional; conditions: po, 14 min
# [25] = test system: Rattus norvegicus; assay: Antinociceptive activity against formalin-induced pain in male Sprague-Dawley rat assessed as reduction in nociceptive response in phase II at IG administration pretreated for 5 mins followed by formalin challenge and measured after 60 mins; assay type: functional; conditions: po, 1.083 h, time 65 min
# [26] = test system: Rattus norvegicus; assay: Antiallodynic activity in IG dosed spinal nerve ligation-induced neuropathic pain male Sprague-Dawley rat model assessed as mechanical withdrawal threshold pretreated with compound for 1 hr and measured on day 15 after surgery; assay type: functional
# [27] = test system: Rattus norvegicus; assay: Antiallodynic activity against oxaliplatin-induced neuropathic pain Sprague-Dawley rat model assessed as increased mechanical withdrawal threshold at 10 to 40 mg/kg, IG measured for 48 hrs; assay type: functional, organism-based; conditions: dose 10-40 mg/kg
# [28] = test system: Rattus norvegicus; assay: Antiallodynic activity against oxaliplatin-induced neuropathic pain Sprague-Dawley rat model assessed as increased mechanical withdrawal threshold at IG administration and measured after 48 hrs; assay type: functional; conditions: po
# [29] = test system: Rattus norvegicus; assay: Antiallodynic activity against oxaliplatin-induced neuropathic pain Sprague-Dawley rat model assessed as increased mechanical withdrawal threshold at 40 mg/kg, IG measured after 48 hrs; assay type: functional, organism-based; conditions: time 1.0 hrs
# [30] = test system: Rattus norvegicus; assay: Antiallodynic activity in CCI-induced neuropathic pain Sprague-Dawley rat model assessed as attenuation of mechanical allodynia at 10 to 40 mg/kg, IG pretreated with compound for 1 hrs and measured on day 15 after surgery; assay type: functional, organism-based; conditions: dose 10-40 mg/kg, time 15.0 day
# [31] = test system: Rattus norvegicus; assay: Antiallodynic activity in CCI-induced neuropathic pain Sprague-Dawley rat model assessed as attenuation of mechanical allodynia at IG administration pretreated with compound for 1 hrs and measured on day 15 after surgery; assay type: functional; conditions: dose 10-40 mg/kg
# [32] = test system: Rattus norvegicus; assay: Antiallodynic activity in CCI-induced neuropathic pain Sprague-Dawley rat model assessed as attenuation of mechanical allodynia at 20 mg/kg, IG administration pretreated with compound for 1 hrs and measured on day 15 after surgery; assay type: functional, organism-based; conditions: time 15.0 day
# [33] = species: Rattus norvegicus; assay: Analgesic activity in streptozotocin-induced diabetic peripheral neuropathic pain male Sprague-Dawley rat model pretreated with compound for 1 hrs and measured on day 15 after surgery; assay type: functional; conditions: dose 10-40 mg/kg
# [34] = test system: Rattus norvegicus; assay: Analgesic activity in streptozotocin-induced diabetic peripheral neuropathic pain male Sprague-Dawley rat model at 10 to 40 mg/kg pretreated with compound for 1 hrs and measured on day 15 after surgery; assay type: functional, organism-based; conditions: dose 10-40 mg/kg
# [35] = test system: Mus musculus; assay: Induction of motor coordination impairment in mouse at 10 to 40 mg/kg, IG measured upto 120 mins by rotarod method; assay type: functional, organism-based; conditions: dose 10-40 mg/kg
# [36] = AUC (0 to t) in male Sprague-Dawley rat at 5 mg/kg, iv measured upto 24 hrs by LC-MS/MS analysis; assay type: ADME, organism-based; conditions: in vivo
# [37] = AUC (0 to t) in male Sprague-Dawley rat at 30 mg/kg, IG measured upto 24 hrs by LC-MS/MS analysis; assay type: ADME, organism-based; conditions: in vivo, po
# [38] = AUC (0 to infinity) in male Sprague-Dawley rat at 5 mg/kg, iv measured upto 24 hrs by LC-MS/MS analysis; assay type: ADME, organism-based; conditions: in vivo
# [39] = AUC (0 to infinity) in male Sprague-Dawley rat at 30 mg/kg, IG measured upto 24 hrs by LC-MS/MS analysis; assay type: ADME, organism-based; conditions: in vivo, po
# [40] = Half life in male Sprague-Dawley rat at 5 mg/kg, iv measured upto 24 hrs by LC-MS/MS analysis; assay type: ADME, organism-based; conditions: in vivo
# [41] = Half life in male Sprague-Dawley rat at 30 mg/kg, IG measured upto 24 hrs by LC-MS/MS analysis; assay type: ADME, organism-based; conditions: in vivo, po
# [42] = Tmax in male Sprague-Dawley rat at 30 mg/kg, IG measured upto 24 hrs by LC-MS/MS analysis; assay type: ADME, organism-based; conditions: in vivo, po
# [43] = Clearance in male Sprague-Dawley rat at 5 mg/kg, iv measured upto 24 hrs by LC-MS/MS analysis; assay type: ADME, organism-based; conditions: in vivo
# [44] = Clearance in male Sprague-Dawley rat at 30 mg/kg, IG measured upto 24 hrs by LC-MS/MS analysis; assay type: ADME, organism-based; conditions: in vivo, po
# [45] = Cmax in male Sprague-Dawley rat at 5 mg/kg, iv measured upto 24 hrs by LC-MS/MS analysis; assay type: ADME, organism-based; conditions: in vivo
# [46] = Cmax in male Sprague-Dawley rat at 30 mg/kg, IG measured upto 24 hrs by LC-MS/MS analysis; assay type: ADME, organism-based; conditions: in vivo, po
# [47] = Oral bioavailability in male Sprague-Dawley rat at 30 mg/kg measured upto 24 hrs by LC-MS/MS analysis; assay type: ADME, organism-based; conditions: in vivo
# Sequence of Voltage-gated potassium channel, KQT; KCNQ2(Kv7.2)/KCNQ3(Kv7.3) (O43526 whole entry): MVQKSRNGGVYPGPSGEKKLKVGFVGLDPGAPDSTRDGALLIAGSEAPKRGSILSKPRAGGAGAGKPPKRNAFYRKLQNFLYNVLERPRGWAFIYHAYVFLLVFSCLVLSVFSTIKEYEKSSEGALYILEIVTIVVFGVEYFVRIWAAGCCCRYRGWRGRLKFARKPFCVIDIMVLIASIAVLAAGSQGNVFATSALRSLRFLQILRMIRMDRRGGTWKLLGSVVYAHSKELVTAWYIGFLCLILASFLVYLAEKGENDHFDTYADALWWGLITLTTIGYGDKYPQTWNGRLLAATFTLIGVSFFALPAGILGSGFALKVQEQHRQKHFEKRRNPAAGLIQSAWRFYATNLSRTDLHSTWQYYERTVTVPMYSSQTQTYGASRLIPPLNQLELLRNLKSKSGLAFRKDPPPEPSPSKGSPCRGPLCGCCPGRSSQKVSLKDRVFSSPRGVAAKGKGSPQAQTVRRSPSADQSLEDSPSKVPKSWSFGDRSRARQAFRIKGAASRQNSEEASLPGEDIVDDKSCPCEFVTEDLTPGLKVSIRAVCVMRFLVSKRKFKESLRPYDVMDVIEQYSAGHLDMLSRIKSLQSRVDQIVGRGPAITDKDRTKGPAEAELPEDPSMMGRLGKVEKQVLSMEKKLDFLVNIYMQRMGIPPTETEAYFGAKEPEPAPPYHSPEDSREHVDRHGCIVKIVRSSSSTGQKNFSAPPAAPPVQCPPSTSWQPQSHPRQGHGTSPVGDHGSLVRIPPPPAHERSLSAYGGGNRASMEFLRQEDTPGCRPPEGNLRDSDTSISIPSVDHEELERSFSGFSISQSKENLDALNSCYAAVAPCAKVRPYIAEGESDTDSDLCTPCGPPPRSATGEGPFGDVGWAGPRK
# Sequence of Voltage-gated potassium channel, KQT; KCNQ2(Kv7.2)/KCNQ3(Kv7.3) (O43525 whole entry): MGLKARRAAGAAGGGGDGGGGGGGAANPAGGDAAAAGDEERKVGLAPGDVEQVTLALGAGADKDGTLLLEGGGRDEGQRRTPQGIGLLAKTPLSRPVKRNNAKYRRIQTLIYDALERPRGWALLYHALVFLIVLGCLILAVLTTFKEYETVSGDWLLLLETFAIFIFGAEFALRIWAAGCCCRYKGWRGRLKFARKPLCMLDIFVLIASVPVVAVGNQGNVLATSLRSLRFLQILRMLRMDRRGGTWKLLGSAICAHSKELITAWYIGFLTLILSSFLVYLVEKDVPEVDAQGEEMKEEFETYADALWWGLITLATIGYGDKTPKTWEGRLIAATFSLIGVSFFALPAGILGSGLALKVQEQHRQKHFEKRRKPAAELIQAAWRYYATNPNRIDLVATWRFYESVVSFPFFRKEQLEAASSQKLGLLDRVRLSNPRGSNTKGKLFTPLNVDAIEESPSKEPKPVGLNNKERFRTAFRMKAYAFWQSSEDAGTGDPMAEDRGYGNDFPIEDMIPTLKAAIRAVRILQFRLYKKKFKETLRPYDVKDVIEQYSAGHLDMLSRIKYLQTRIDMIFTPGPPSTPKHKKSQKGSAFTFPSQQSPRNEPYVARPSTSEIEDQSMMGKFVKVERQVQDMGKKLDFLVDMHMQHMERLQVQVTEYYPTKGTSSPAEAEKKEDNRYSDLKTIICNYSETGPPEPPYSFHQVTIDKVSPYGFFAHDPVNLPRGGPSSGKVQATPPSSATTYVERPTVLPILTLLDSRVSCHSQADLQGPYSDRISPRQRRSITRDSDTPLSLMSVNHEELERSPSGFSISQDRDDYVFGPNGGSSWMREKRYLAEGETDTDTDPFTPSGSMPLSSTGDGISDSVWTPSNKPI
structure (smiles),measurement,setting,value
COc1cccc(COc2ccc(N)c(NC(C)=O)n2)c1,EC50,[1],30.3 µM
CCOC(=O)Nc1ccc(OCc2ccc(F)cc2)nc1NC(C)=O,EC50,[1],6.19 µM
CCOC(=O)Nc1nc(OCc2ccc(F)cc2)ccc1N,EC50,[1],12.1 µM
CC(C)C[C@H](CN)CC(=O)O,Activity,[2],inactive
same,Activity,[3],Active
same,Activity,[4],Active
same,Activity,[5],inactive
CC(=O)Nc1nc(OCc2cccc3ccccc23)ccc1N,EC50,[1],218 µM
Nc1ccc(OCc2ccc(F)cc2)nc1NC(=O)c1ccccc1,EC50,[1],98.6 µM
Nc1ccc(OCc2ccc(F)cc2)cc1NC(=O)c1ccccc1,EC50,[1],196 µM
CC(=O)Nc1nc(OC(C)c2ccc(F)cc2)ccc1N (configuration not stated),EC50,[1],18.9 µM
CC(=O)Nc1nc(OCc2ccncc2)ccc1N,EC50,[1],35.3 µM
CC(=O)Nc1nc(OCc2ccc3ccccc3c2)ccc1N,EC50,[1],189 µM
Nc1ccc(OCc2ccc(F)cc2)nc1N1CCCC1=O,EC50,[1],12.7 µM
CC(=O)Nc1nc(OCc2ccc(F)cc2)ccc1N,EC50,[1],1.03 µM
same,Activity,[6],184%
same,Activity,[7],Non-toxic
same,Activity,[8],Non-toxic
same,Activity,[9],Non-toxic
same,Activity,[10],< 70%
same,inhibition,[11],59.5%
same,inhibition,[12],69.7%
same,IC50,[13],448 µM
same,inhibition,[14],< 50%
same,inhibition,[15],< 50%
same,inhibition,[16],< 50%
same,inhibition,[17],< 50%
same,inhibition,[18],< 50%
same,LD50 at 168 h,[19],> 2000 mg/kg
same,LD50 at 168 h,[20],267 mg/kg
same,LD50 at 168 h,[21],421 mg/kg
same,Activity,[22],Active
same,Activity,[23],Active
same,ED50,[24],16.2 mg/kg
same,ED50,[25],14.7 mg/kg
same,ED50,"[26]; po, 360 h, time 15 day",14.9 mg/kg
same,Activity,[26]; time 15.0 day,Dose-dependent-effect
same,Activity,[4],Active; Superior Activity Observed Than Pregabalin
same,Activity,[27],Active
same,ED50,[28],12.2 mg/kg
same,Activity,[29],Active; Inhibition Of Pain Was Higher Than Pregabalin
same,Activity,[30],Active
same,Activity,[31]; time 15.0 day,Dose-dependent-effect
same,ED50,"[31]; po, 360 h, time 15 day",12 mg/kg
same,Activity,[32],Active; Higher Value Observed Than Pregabalin
same,ED50,"[33]; 360 h, time 15 day",9.63 mg/kg
same,Activity,[33]; time 15.0 day,Dose-dependent-effect
same,Activity,[34],Active; Better Activity Than Pregabalin Observed
same,Activity,[35],Active
same,AUC(0-t) at 24 h,[36],1100 ng·h/mL
same,AUC(0-t) at 24 h,[37],4110 ng·h/mL
same,AUC(0-inf),[38],1520 ng·h/mL
same,AUC(0-inf),[39],4270 ng·h/mL
same,half-life,[40],768 min
same,half-life,[41],210 min
same,Tmax,[42],10.2 min
same,clearance,[43],56.7 mL/min/kg
same,CL/F,[44],120 mL/min/kg
same,Cmax,[45],2850 ng/mL
same,Cmax,[46],3340 ng/mL
same,bioavailability,[47],46.7%
Nc1ccc(OCc2ccc(F)cc2)nc1NC(=O)C1CCCC1,EC50,[1],131 µM

# Source: ChEMBL document CHEMBL6092178, “Discovery of a novel KV7.2/7.3 channels agonist for the treatment of neuropathic pain” (Eur J Med Chem, 2024)
